Our source for the emission maximum values is the Deep4Chem optical property database.

The first series in a line: solvent given as SMILES. The following applies: in CCOC(C)=O.
On to `F[B-]1(F)OC(c2ccccc2)=Nc2sc(-c3ccccc3)n[n+]21`, for which the emission maximum was determined as 411 nm.

Compound `O=C1CCCc2c1[nH]c1cc3c(cc21)OCO3` returned an emission maximum of 388.9 nm.

Compound `CN(C)c1ccc(/C=C/c2nc3c4ccccc4c4ccccc4c3[nH]2)cc1` came in with an emission maximum of 460 nm.

With `CC1=[N+]2C(=C(c3ccccc3C)c3ccc(C)n3[B-]2(F)F)C=C1c1cc2n(c1)[B-](F)(F)[N+]1=CC=CC1=C2c1c(C)cc(C)cc1C`, the emission maximum worked out at 679 nm.

Consider `CCCCC1(CCCC)c2cc(C#Cc3ccc4ccc5cccc6ccc3c4c56)ccc2-c2ccc(N(c3ccccc3)c3ccccc3)cc21`, for which the emission maximum was 490 nm.

Still in this series, the particulars now being: in CCOCC.
With `CC1=C(C(C)(C)C)C(C)=[N+]2C1=C(C)c1c(C)c(C(C)(C)C)c(C)n1[B-]2(F)F`, the emission maximum came to 565.4 nm.

Consider `CN(C)c1ccc(/C=C/c2nc3c4ccccc4c4ccccc4c3[nH]2)cc1`, for which the emission maximum is 448 nm.

The same series, now with this note: in CN(C)C=O.
In the case of `CC1=C(C(C)(C)C)C(C)=[N+]2C1=C(C)c1c(C)c(C(C)(C)C)c(C)n1[B-]2(F)F`, the emission maximum was 565.4 nm.

`CCCCN1C(=O)C(=CC=C2N(CCCC)c3ccccc3N2CCCC)C(=O)N(CCCC)C1=S`: the emission maximum amounted to 482 nm.

As for `F[B-]1(F)OC(c2ccccc2)=Nc2sc(-c3ccccc3)n[n+]21`, the emission maximum is recorded as 419 nm.

As to `CN(C)c1ccc(/C=C/c2nc3c4ccccc4c4ccccc4c3[nH]2)cc1`, the emission maximum amounted to 478 nm.

The compound `CCCCC1(CCCC)c2cc(C#Cc3ccc4ccc5cccc6ccc3c4c56)ccc2-c2ccc(N(c3ccccc3)c3ccccc3)cc21` showed an emission maximum of 565 nm.

The same series, now with this note: in CNC=O.
Regarding `CC1=C(C(C)(C)C)C(C)=[N+]2C1=C(C)c1c(C)c(C(C)(C)C)c(C)n1[B-]2(F)F`, the emission maximum is 560.6 nm.

Staying with this series, now noted: in CO.
As for `CC1=C(C(C)(C)C)C(C)=[N+]2C1=C(C)c1c(C)c(C(C)(C)C)c(C)n1[B-]2(F)F`, the emission maximum amounted to 561.2 nm.

For `Cc1cc(C)c(B(c2cc(C#Cc3ccccc3)sc2-c2sc(C#Cc3ccccc3)cc2P(=O)(c2ccccc2)c2ccccc2)c2c(C)cc(C)cc2C)c(C)c1`, the emission maximum is recorded as 560 nm.

Compound `Cc1nc2c(ccc3c2sc(/C=C/c2ccc(-n4c5ccccc5c5ccccc54)cc2)[n+]3C)s1` displayed an emission maximum of 607 nm.

`C(=C\c1nc2ccccc2[nH]1)/c1ccc(-c2nc3c4cccnc4c4ncccc4c3[nH]2)cc1` registered an emission maximum of 452 nm.

Turning to `COC(=O)C([NH3+])Cc1ccc2oc(-c3ccncc3)nc2c1` (stereo not given), the emission maximum is 379.88 nm.

The same series, now with this note: in COC(C)=O.
Consider `CC1=C(C(C)(C)C)C(C)=[N+]2C1=C(C)c1c(C)c(C(C)(C)C)c(C)n1[B-]2(F)F`, for which the emission maximum is given as 561.8 nm.

`CN(C)c1ccc(/C=C/c2nc3c4ccccc4c4ccccc4c3[nH]2)cc1` showed an emission maximum of 471 nm.

The same series, now with this note: in CS(C)=O.
`Brc1ccc(N/C=C/C=[NH+]c2ccc(Br)cc2)cc1`: the emission maximum is given as 497 nm.

With `O=C1CCCc2c1[nH]c1cc3c(cc21)OCO3`, the emission maximum was 403.54 nm.

The compound `CN(C)c1ccc(/C=C/c2nc3c4ccccc4c4ccccc4c3[nH]2)cc1` showed an emission maximum of 480 nm.

The series is the same for the next values; noted with them: in Cc1ccccc1.
In turn, `c1ccc(-c2nc(-c3ccccc3)nc(-c3ccc(-n4c5ccccc5c5cc6c(cc54)C4(c5ccccc5-c5ccccc54)c4ccccc4-6)cc3)n2)cc1` gave an emission maximum of 432 nm.

For `Cc1ccc2c(c1)c1cc(Br)ccc1n2-c1c(C#N)c(-n2c3ccc(Br)cc3c3cc(Br)ccc32)c(-n2c3ccc(Br)cc3c3cc(Br)ccc32)c(C#N)c1-n1c2ccc(Br)cc2c2cc(Br)ccc21`, the emission maximum came to 546 nm.

`CCCCN1C(=O)C(=CC=C2N(CCCC)c3ccccc3N2CCCC)C(=O)N(CCCC)C1=S` yielded an emission maximum of 490 nm.

The compound `F[B-]1(F)OC(c2ccccc2)=Nc2sc(-c3ccccc3)n[n+]21` showed an emission maximum of 410 nm.

`CN(C)c1ccc(/C=C/c2nc3c4ccccc4c4ccccc4c3[nH]2)cc1` registered an emission maximum of 436 nm.

For the compound `CCCCC1(CCCC)c2cc(C#Cc3ccc4ccc5cccc6ccc3c4c56)ccc2-c2ccc(N(c3ccccc3)c3ccccc3)cc21`, the emission maximum is listed as 449 nm.

Staying with this series, now noted: in ClC(Cl)Cl.
Regarding `Cc1nc2c(ccc3c2sc(/C=C/c2ccc(-n4c5ccccc5c5ccccc54)cc2)[n+]3C)s1`, the emission maximum was 638 nm.

Compound `CSc1ccc2cc(C#N)c3ccc4ccccc4c3c2c1` registered an emission maximum of 403 nm.

Compound `CCCCN1C(=O)C(=CC=C2N(CCCC)c3ccccc3N2CCCC)C(=O)N(CCCC)C1=S` displayed an emission maximum of 489 nm.

For the compound `F[B-]1(F)OC(c2ccccc2)=Nc2sc(-c3ccccc3)n[n+]21`, the emission maximum amounted to 413 nm.

With `CN(C)c1ccc(/C=C/c2nc3c4ccccc4c4ccccc4c3[nH]2)cc1`, the emission maximum is 467 nm.

`CCCCC1(CCCC)c2cc(C#Cc3ccc4ccc5cccc6ccc3c4c56)ccc2-c2ccc(N(c3ccccc3)c3ccccc3)cc21` registered an emission maximum of 486 nm.

The series is the same for the next values; noted with them: in ClCCl.
With `c1ccc(-c2nc(-c3ccccc3)nc(-c3ccc(-n4c5ccccc5c5cc6c(cc54)C4(c5ccccc5-c5ccccc54)c4ccccc4-6)cc3)n2)cc1`, the emission maximum stood at 501.47 nm.

`COC(=O)c1cc(=O)n(C)c2cc(-c3cc(OC)c(OC)c(OC)c3)sc12` returned an emission maximum of 485 nm.

Compound `CCCCN1C(=O)C(=CC=C2N(CCCC)c3ccccc3N2CCCC)C(=O)N(CCCC)C1=S` had an emission maximum of 486 nm.

Compound `F[B-]1(F)OC(c2ccccc2)=Nc2sc(-c3ccccc3)n[n+]21` registered an emission maximum of 412 nm.

In the case of `CC(C)(C)c1ccc(N(c2ccc(C(C)(C)C)cc2)c2cc(N(c3ccc(C(C)(C)C)cc3)c3ccc(C(C)(C)C)cc3)c3ccc4cc(C(C)(C)C)cc5ccc2c3c54)cc1`, the emission maximum worked out at 491 nm.

Compound `C(=C\c1nc2ccccc2[nH]1)/c1ccc(-c2nc3c4cccnc4c4ncccc4c3[nH]2)cc1` yielded an emission maximum of 447 nm.

`COc1cccc(C2=C3C=C(/C=C/C(=O)OC(C)(C)C)C=[N+]3[B-](F)(F)n3cccc32)c1` returned an emission maximum of 581 nm.

For the compound `COc1cccc(/C=C/C(=O)c2c(O)cc(C)oc2=O)c1`, the emission maximum is reported as 490 nm.

Regarding `O=P(c1ccccc1)(c1ccccc1)c1cccc(-n2c(-c3ccccc3P(=O)(c3ccccc3)c3ccccc3)nc3ccccc32)c1`, the emission maximum was 384 nm.

In turn, `CCCCC1(CCCC)c2cc(C#Cc3ccc4ccc5cccc6ccc3c4c56)ccc2-c2ccc(N(c3ccccc3)c3ccccc3)cc21` registered an emission maximum of 516 nm.

Staying with this series, now noted: in O.
The compound `O=C1CCCc2c1[nH]c1cc3c(cc21)OCO3` came in with an emission maximum of 463.6 nm.

`COC(=O)C([NH3+])Cc1ccc2oc(-c3ccncc3)nc2c1` (stereo not given) gave an emission maximum of 402.82 nm.

Staying with this series, now noted: in O=P(c1ccccc1)(c1ccccc1)c1ccccc1Oc1ccccc1P(=O)(c1ccccc1)c1ccccc1.
`c1ccc(-c2nc(-c3ccccc3)nc(-c3ccc(-n4c5ccccc5c5cc6c(cc54)C4(c5ccccc5-c5ccccc54)c4ccccc4-6)cc3)n2)cc1` displayed an emission maximum of 470 nm.

Staying with this series, now noted: in OCC(F)(F)F.
Consider `CC1=C(C(C)(C)C)C(C)=[N+]2C1=C(C)c1c(C)c(C(C)(C)C)c(C)n1[B-]2(F)F`, for which the emission maximum amounted to 561.2 nm.

The series is the same for the next values; noted with them: in c1ccccc1.
In turn, `O=C1CCCc2c1[nH]c1cc3c(cc21)OCO3` came in with an emission maximum of 384.12 nm.
